Assays:
[1] = system: acute myelogenous leukemia cell strain KG1; experiment: Growth inhibition of FGFR1-dependent KG1 cells (CCK-8); type: cell-based; details: Homo sapiens, KG-1, 72 h treatment
Description: The growth inhibition of the acute myelogenous leukemia cell strain KG1 (FGFR1-dependent tumor cell strain; the FGFR1 fusion protein in the cell was expressed in the cytoplasm; purchased from ATCC cell bank) by the compounds was detected with CCK-8 cell count kit (Dojindo). The specific steps are as follows: KG1 cells in logarithmic growth phase were seeded onto a 96-well culture plate in appropriate density, 90 ul per well. After overnight culture, different concentrations of compounds were added and the treatment continued for 72 h, and solvent control group (negative control) was set. After treatment for 72 h, the effect of the compounds on cell proliferation was observed by CCK-8 cell counting kit (Dojindo). 10 μL of CCK-8 reagent was added to each well. After incubated for 2-4 hours in a 37 □ incubator, read with SpectraMax 190 microplate reader at 450 nm wavelength. The inhibition rate (%) of the compounds on tumor cell growth was calculated using the following formula: Inhibition rate (%)=(OD negative control well-OD administered well)/OD negative control well×100%.

FGFR2 = FGFR2 (Homo sapiens (Human), UniProt P21802); experiment: FGFR2 kinase activity at the molecular level (ELISA, Poly(Glu,Tyr) 4:1 substrate); type: biochemical; details: kinase domain recombinant protein, 5 μM ATP
Chain of FGFR2 (P21802 481-770): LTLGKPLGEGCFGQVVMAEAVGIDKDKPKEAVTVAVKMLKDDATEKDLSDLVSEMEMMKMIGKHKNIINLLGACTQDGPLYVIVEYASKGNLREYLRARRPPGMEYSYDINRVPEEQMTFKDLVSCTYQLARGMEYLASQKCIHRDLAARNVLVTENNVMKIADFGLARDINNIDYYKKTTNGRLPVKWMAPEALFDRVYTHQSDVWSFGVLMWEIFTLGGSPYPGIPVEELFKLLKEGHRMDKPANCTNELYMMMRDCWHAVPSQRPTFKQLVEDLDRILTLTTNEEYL
Description: (§1) 100 μL/well of 2 mg/mL OPD developing solution (diluted with 0.1M citric acid-sodium citrate buffer containing 0.03% H2O2 (pH=5.4)), and reacted in dark for 1-10 minutes at 25° C.

FGFR1 = FGFR1 (Homo sapiens (Human), UniProt P11362); experiment: FGFR1 kinase activity at the molecular level (ELISA, Poly(Glu,Tyr) 4:1 substrate); type: biochemical; details: kinase domain recombinant protein, 5 μM ATP
Chain of FGFR1 (P11362 478-767): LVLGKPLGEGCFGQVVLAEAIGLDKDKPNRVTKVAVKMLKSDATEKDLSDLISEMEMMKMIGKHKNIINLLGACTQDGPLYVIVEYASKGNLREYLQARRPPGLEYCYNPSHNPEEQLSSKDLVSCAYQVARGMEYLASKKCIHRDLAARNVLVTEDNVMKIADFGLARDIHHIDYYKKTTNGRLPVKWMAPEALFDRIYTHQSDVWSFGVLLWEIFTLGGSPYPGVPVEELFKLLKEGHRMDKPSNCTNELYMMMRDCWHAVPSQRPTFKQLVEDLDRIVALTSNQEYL
Description: as §1

FGFR3 = FGFR3 (Homo sapiens (Human), UniProt P22607); experiment: FGFR3 kinase activity at the molecular level (ELISA, Poly(Glu,Tyr) 4:1 substrate); type: biochemical; details: kinase domain recombinant protein, 5 μM ATP
Chain of FGFR3 (P22607 472-761): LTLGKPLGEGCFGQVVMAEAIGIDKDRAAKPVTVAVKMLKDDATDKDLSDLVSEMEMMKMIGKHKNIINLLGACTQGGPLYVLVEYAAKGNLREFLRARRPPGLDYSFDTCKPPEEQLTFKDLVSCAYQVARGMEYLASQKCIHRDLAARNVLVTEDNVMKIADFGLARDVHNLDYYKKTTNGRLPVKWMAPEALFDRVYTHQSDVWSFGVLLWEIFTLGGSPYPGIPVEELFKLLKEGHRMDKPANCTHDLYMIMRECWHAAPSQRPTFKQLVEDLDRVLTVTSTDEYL
Description: as §1

SMILES	IC50 [1] [nM]	IC50 (FGFR2) [nM]	IC50 (FGFR1) [nM]	IC50 (FGFR3) [nM]
COc1cc(OC)c(Cl)c(-c2ccc3c(NC(=O)c4ccc(N5C[C@@H](C)N[C@@H](C)C5)cc4)n[nH]c3c2)c1Cl [Example 14]	< 200	–	–	–
COc1cc(OC)c(Cl)c(-c2ccc3c(NC(=O)c4ccc(N5CCN(C)CC5)cc4)n[nH]c3c2)c1Cl [Example 15, N-(6-(2,6-dichloro-3,5-dimethoxyphenyl)-1H-indazole-3-yl)-4-(4-methylpiperazine-1-yl)benzamide]	< 200	< 100	< 100	< 100
COc1cc(OC)c(Cl)c(-c2ccc3c(NC(=O)c4ccc(CN5CCN(C)CC5)cc4)n[nH]c3c2)c1Cl [Example 16, N-(6-(2,6-dichloro-3,5-dimethoxyphenyl)-1H-indazole-3-yl)-4-((4-methylpiperazine-1-yl)methyl)benzamide]	200 to 1000	< 100	< 100	< 100
COc1cc(OC)c(Cl)c(-c2ccc3c(NC(=O)c4ccc(N5CCOCC5)cc4)n[nH]c3c2)c1Cl [Example 17, N-(6-(2,6-dichloro-3,5-dimethoxyphenyl)-1H-indazole-3-yl)-4-morpholino benzamide]	200 to 1000	< 100	< 100	< 100
CCN1CCN(c2ccc(C(=O)Nc3n[nH]c4cc(-c5c(Cl)c(OC)cc(OC)c5Cl)ccc34)cc2)CC1 [Example 18, N-(6-(2,6-dichloro-3,5-dimethoxyphenyl)-1H-indazole-3-yl)-4-(4-ethylpiperazine-1-yl)benzamide]	< 200	< 100	< 100	< 100
COc1cc(OC)c(Cl)c(-c2ccc3c(NC(=O)c4ccc(CN5CCN(C(C)=O)CC5)cc4)n[nH]c3c2)c1Cl [Example 19, 4-((4-acetyl-1-yl)methyl)-N-(6-(2,6-dichloro-3,5-dimethoxyphenyl)-1H-indazole-3-yl)benzamide]	200 to 1000	< 100	< 100	< 100
COc1cc(OC)c(Cl)c(-c2ccc3c(NC(=O)c4ccc(N5CCN(C)CC5)cc4)n[nH]c3n2)c1Cl [Example 63, N-(6-(2,6-dichloro-3,5-dimethoxyphenyl)-1H-pyrazolo [3,4-b]pyridin-3-yl)-4-(4-methylpiperazine-1-yl)benzamide]	–	< 100	< 100	< 100
CCN1CCN(c2ccc(C(=O)Nc3n[nH]c4nc(-c5c(Cl)c(OC)cc(OC)c5Cl)ccc34)cn2)CC1 [Example 86, N-(6-(2,6-dichloro-3,5-dimethoxyphenyl)-1H-pyrazolo [3,4-b]pyridin-3-yl)-6-(4-ethylpiperazine-1-yl)nicotinamide]	–	< 100	< 100	–
COc1cc(OC)c(Cl)c(-c2ccc3c(NC(=O)c4ccc(N5CCNC(C)(C)C5)nc4)n[nH]c3n2)c1Cl [Example 87, N-(6-(2,6-dichloro-3,5-dimethoxyphenyl)-1H-pyrazolo [3,4-b]pyridin-3-yl)-6-(3,3-dimethylpiperazine-1-yl)nicotinamide]	–	< 100	< 100	–
COc1cc(OC)c(Cl)c(-c2ccc3c(NC(=O)c4ccc(N5CCN(C6CC6)CC5)nc4)n[nH]c3n2)c1Cl [Example 88, 6-(4-cyclopropylpiperazine-1-yl)-N-(6-(2,6-dichloro-3,5-dimethoxyphenyl)-1H-pyrazolo [3,4-b]pyridin-3-yl)nicotinamide]	–	< 100	< 100	–
COc1cc(OC)c(Cl)c(-c2ccc3c(NC(=O)c4ccc(N5CCN(C6CC6)CC5)cc4)n[nH]c3n2)c1Cl [Example 89]	–	< 100	< 100	–
COc1cc(OC)c(Cl)c(-c2ccc3c(NC(=O)c4ccc(N5C[C@@H](C)N(C)[C@@H](C)C5)cc4)n[nH]c3n2)c1Cl [Example 90]	–	< 100	< 100	–
COc1cc(OC)c(Cl)c(-c2ccc3c(NC(=O)c4ccc(N5CCNC(C)(C)C5)c(F)c4)n[nH]c3n2)c1Cl [Example 91, N-(6-(2,6-dichloro-3,5-dimethoxyphenyl)-1H-pyrazolo [3,4-b]pyridin-3-yl)-4-(3,3-dimethylpiperazine-1-yl)-3-fluorobenzamide]	–	< 100	< 100	–
COc1cc(OC)c(Cl)c(-c2ccc3c(NC(=O)c4cnc(N5CCN(C)CC5)nc4)n[nH]c3n2)c1Cl [Example 92, N-(6-(2,6-dichloro-3,5-dimethoxyphenyl)-1H-pyrazolo [3,4-b]pyridin-3-yl)-2-(4-methylpiperazine-1-yl)pyrimidine-5-formamide]	–	< 100	< 100	–
COc1cc(OC)c(F)c(-c2ccc3c(NC(=O)c4ccc(N5CCCCC5)cc4)n[nH]c3c2)c1F [Example 93, N-(6-(2,6-difluoro-3,5-dimethoxyphenyl)-1H-indazole-3-yl)-4-(piperidine-1-yl)benzamide]	–	< 100	< 100	–
COc1cc(OC)c(F)c(-c2ccc3c(NC(=O)c4ccc(CN5CCN(C)CC5)cc4)n[nH]c3c2)c1F [Example 94, N-(6-(2,6-difluoro-3,5-dimethoxyphenyl)-1H-indazole-3-yl)-4-((4-methylpiperazine-1-yl)methyl)benzamide]	–	< 100	< 100	–
COc1cc(OC)c(F)c(-c2ccc3c(NC(=O)c4ccc(N5CCCN(C)CC5)cc4)n[nH]c3c2)c1F [Example 95, N-(6-(2,6-difluoro-3,5-dimethoxyphenyl)-1H-indazole-3-yl)-4-(4-methyl-1,4-diazepane-1-yl)benzamide]	–	< 100	< 100	–
COc1cc(OC)c(F)c(-c2ccc3c(NC(=O)c4cnc(N5CCN(C)CC5)nc4)n[nH]c3c2)c1F [Example 96, N-(6-(2,6-difluoro-3,5-dimethoxyphenyl)-1H-indazole-3-yl)-2-(4-methylpiperazine-1-yl) pyrimidine-5-formamide]	–	< 100	< 100	–
COc1cc(C(=O)Nc2n[nH]c3cc(-c4c(F)c(OC)cc(OC)c4F)ccc23)ccc1N1CCNC(C)(C)C1 [Example 97, N-(6-(2,6-difluoro-3,5-dimethoxyphenyl)-1H-indazole-3-yl)-4-(3,3-dimethylpiperazine-1-yl)-3-methoxybenzamide]	–	< 100	< 100	–
COc1cc(OC)c(F)c(-c2ccc3c(NC(=O)c4ccc(N5CCC(N(C)C)C5)cc4)n[nH]c3c2)c1F (centres unmarked) [Example 98, N-(6-(2,6-difluoro-3,5-dimethoxyphenyl)-1H-indazole-3-yl)-4-(3-(dimethylamino)pyrrolidine-1-yl)benzamide]	–	< 100	< 100	–
COc1cc(OC)c(Cl)c(-c2ccc3c(NC(=O)c4ccc(N5CC(C)(C)NC(C)(C)C5)cc4)n[nH]c3n2)c1Cl [Example 99]	–	< 100	< 100	–
COc1cc(OC)c(Cl)c(-c2ccc3c(NC(=O)c4ccc(N5CCC(N(C)C)C5)cc4)n[nH]c3n2)c1Cl (centres unmarked) [Example 100]	–	< 100	< 100	–
COc1cc(C(=O)Nc2n[nH]c3nc(-c4c(Cl)c(OC)cc(OC)c4Cl)ccc23)ccc1N1CCNC(C)(C)C1 [Example 101, N-(6-(2,6-dichloro-3,5-dimethoxyphenyl)-1H-pyrazolo [3,4-b]pyridin-3-yl)-4-(3,3-dimethylpiperazine-1-yl)-3-methoxybenzamide]	–	< 100	< 100	–
